Measured values from patent US20260069571A1, “DDR1 AND DDR2 INHIBITORS FOR THE TREATEMENT OF CANCER AND FIBROTIC DISEASES” (REDX PHARMA PLC, priority 2021, published 2026).

Columns and labels:
Recombinant human DDR1 = Recombinant human DDR1 (Homo sapiens (Human), UniProt Q08345); assay: LanthaScreen Eu Kinase Binding Assay, DDR1; conditions: DDR1 2.5 nM (aa440-876, GST tag), Kinase Tracer 178 5 nM; for IC50: read-out: DDR1 pIC50 (converted)
Experimental: (§1) DDR1 and DDR2 Biochemical Assay Method
(§2) The capacity of compounds to bind to DDR1 and DDR2 was quantified using a LanthaScreen Eu Kinase Binding Assay. Recombinant human DDR1 (2.5 nM; aa440-876 containing a GST tag) and DDR2 (1.75 nM; aa427-855 containing a GST tag) were diluted in assay buffer (50 mM HEPES pH7.3, 10 mM MgCl2, 1 mM EGTA and 0.01% Tween) with various concentrations of compound in a 384-well plate and a volume of 5 uL. After a 30-minute incubation at room temperature, 2.5 uL of Eu-anti GST antibody (diluted to 1 nM in assay buffer) plus Kinase Tracer 178 (diluted in assay buffer to 5 nM for DDR1 and 10 nM for DDR2) were added to the plate. Following 60-minute incubation at room temperature, time-resolved fluorescence was measured on a BMG Labtech PHERAstar plate reader. DMSO (1%) and reference compound (1 μM) were used to generate the Max and Min assay signals, respectively. Data was analysed using a four-parameter logistic model to calculate IC50 values, with at least two independent replicates were performed for each compound.

Recombinant human DDR2 = Recombinant human DDR2 (Homo sapiens (Human), UniProt Q16832); assay: LanthaScreen Eu Kinase Binding Assay, DDR2; conditions: DDR2 1.75 nM (aa427-855, GST tag), Kinase Tracer 178 10 nM; for IC50: read-out: DDR2 pIC50 (converted)
Chain of Recombinant human DDR2 (Q16832 427-855): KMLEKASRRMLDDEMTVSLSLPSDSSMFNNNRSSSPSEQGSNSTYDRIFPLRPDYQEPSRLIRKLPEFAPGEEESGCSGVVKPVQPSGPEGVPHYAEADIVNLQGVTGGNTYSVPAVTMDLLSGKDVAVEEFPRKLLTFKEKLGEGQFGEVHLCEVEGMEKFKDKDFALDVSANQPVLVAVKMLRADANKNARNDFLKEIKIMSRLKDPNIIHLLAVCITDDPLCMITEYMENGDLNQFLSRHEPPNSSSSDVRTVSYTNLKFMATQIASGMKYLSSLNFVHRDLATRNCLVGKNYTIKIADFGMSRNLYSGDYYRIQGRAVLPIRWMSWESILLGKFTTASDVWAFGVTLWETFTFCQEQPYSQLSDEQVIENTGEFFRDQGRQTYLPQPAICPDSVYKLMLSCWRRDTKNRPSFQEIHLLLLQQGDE
Experimental: as §1, §2

Chain of Recombinant human DDR1 (Q08345 other isoform, or with tags, fused parts or gaps): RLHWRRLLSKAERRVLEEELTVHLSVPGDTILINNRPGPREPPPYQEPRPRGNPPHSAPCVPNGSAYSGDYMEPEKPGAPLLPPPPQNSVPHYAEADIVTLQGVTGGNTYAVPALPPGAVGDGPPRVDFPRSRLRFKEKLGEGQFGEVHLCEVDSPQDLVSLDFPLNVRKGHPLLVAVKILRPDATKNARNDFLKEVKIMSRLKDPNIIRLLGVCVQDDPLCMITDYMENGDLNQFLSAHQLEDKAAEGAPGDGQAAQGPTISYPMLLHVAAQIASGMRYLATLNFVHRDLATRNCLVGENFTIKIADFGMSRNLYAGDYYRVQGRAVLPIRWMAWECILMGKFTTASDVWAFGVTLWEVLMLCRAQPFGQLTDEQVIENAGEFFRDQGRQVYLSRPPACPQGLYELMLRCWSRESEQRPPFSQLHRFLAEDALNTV

| SMILES | IC50 (Recombinant human DDR1) [nM] | IC50 (Recombinant human DDR2) [nM] | DDR1 pIC50 (Recombinant human DDR1) | DDR2 pIC50 (Recombinant human DDR2) |
| --- | --- | --- | --- | --- |
| Cn1ncc2cc(Nc3cccc4c3C(=O)N(CC(=O)Nc3cccc(C(F)(F)F)c3)C4)cnc21 [Example 59, 2-[7-[(1-methylpyrazolo[3,4-b]pyridin-5-yl)amino]-1-oxo-isoindolin-2-yl]-N-[3-(trifluoromethyl)phenyl]acetamide] | 10 to 100 | 100 to 1000 |  |  |
| Cc1cc(Nc2cccc3c2C(=O)N(CC(=O)NCC(F)(F)F)C3)cc2cn[nH]c12 [Example 11, 2-[7-[(7-methyl-1H-indazol-5-yl)amino]-1-oxo-isoindolin-2-yl]-N-(2,2,2-trifluoroethyl)acetamide] |  |  | A (pIC50>8) | A (pIC50>8) |
| Cn1ncc2cc(Nc3cccc4c3C(=O)N(CC(=O)N3CCOCC3C(F)(F)F)C4)ccc21 (stereo not drawn) [Example 31, 7-[(1-methylindazol-5-yl)amino]-2-[2-oxo-2-[3-(trifluoromethyl)morpholin-4-yl]ethyl]isoindolin-1-one] |  | 10 to 100 | A (pIC50>8) |  |
| Cn1ncc2cc(Nc3cccc4c3C(=O)N(CC(=O)N3CCO[C@H](C(F)(F)F)C3)C4)cnc21 [Example 54, 7-[(1-methylpyrazolo[3,4-b]pyridin-5-yl)amino]-2-[2-oxo-2-[(2S)-(trifluoromethyl)morpholin-4-yl]ethyl]isoindolin-1-one] | 100 to 1000 | 100 to 1000 |  |  |
| Cn1ncc2cc(Nc3cccc4c3C(=O)N(CC(=O)Nc3cccc(C(C)(C)N)c3)C4)ccc21 [Example 23, N-[3-(1-amino-1-methyl-ethyl)phenyl]-2-[7-[(1-methylindazol-5-yl)amino]-1-oxo-isoindolin-2-yl]acetamide] | 10 to 100 | 10 to 100 |  |  |
| C[C@H](NC(=O)CN1Cc2cccc(Nc3ccc4c(cnn4C)c3)c2C1=O)C(F)(F)F [Example 2, 2-[7-[(1-Methylindazol-5-yl)amino]-1-oxo-isoindolin-2-yl]-N-[(1S)-2,2,2-trifluoro-1-methyl-ethyl]acetamide] |  |  | A (pIC50>8) | A (pIC50>8) |
| O=C(CN1Cc2cccc(Nc3ccc4[nH]ncc4c3)c2C1=O)NCC(F)(F)F [Example 21, 2-[7-(1H-indazol-5-ylamino)-1-oxo-isoindolin-2-yl]-N-(2,2,2-trifluoroethyl)acetamide] |  | 10 to 100 | A (pIC50>8) |  |
| Cc1n[nH]c2cc(Nc3cccc4c3C(=O)N(CC(=O)N3CC(C(F)(F)F)C3)C4)ccc12 [Example 34, 7-[(3-methyl-1H-indazol-6-yl)amino]-2-[2-oxo-2-[3-(trifluoromethyl)azetidin-1-yl]ethyl]isoindolin-1-one] | 10 to 100 | 10 to 100 |  |  |
| Cn1ncc2cc(Nc3cccc4c3C(=O)N(CC(=O)N3CCOC(C(F)(F)F)C3)C4)ccc21 (stereo not drawn) [Example 26, 7-[(1-methylindazol-5-yl)amino]-2-[2-oxo-2-[2-(trifluoromethyl)morpholin-4-yl]ethyl]isoindolin-1-one] | 10 to 100 | 10 to 100 |  |  |
| Cn1ncc2cc(Nc3cccc4c3C(=O)N(CC(=O)N3CCOC[C@@H]3C(F)(F)F)C4)ccc21 [Example 45, 7-[(1-methylindazol-5-yl)amino]-2-[2-oxo-2-[(3R)-(trifluoromethyl)morpholin-4-yl]ethyl]isoindolin-1-one] | < 10 | 10 to 100 |  |  |
| Cn1ncc2cc(Nc3cccc4c3C(=O)N(CC(=O)Nc3cccc(C(F)(F)F)c3)C4)ccc21 [Example 5, 2-{7-[(1-methyl-1H-indazol-5-yl)amino]-1-oxo-2,3-dihydro-1H-isoindol-2-yl}-N-[3-(trifluoromethyl)phenyl]acetamide] |  | 10 to 100 | A (pIC50>8) |  |
| Cn1ncc2cc(Nc3cccc4c3C(=O)N(CC(=O)NCC(F)(F)F)C4)cnc21 [Example 9, 2-[7-[(1-methylpyrazolo[3,4-b]pyridin-5-yl)amino]-1-oxo-isoindolin-2-yl]-N-(2,2,2-trifluoroethyl)acetamide] | 10 to 100 | 100 to 1000 |  |  |
| Cc1n[nH]c2cc(Nc3cccc4c3C(=O)N(CC(=O)N(C)CC(F)(F)F)C4)ccc12 [Example 46, N-methyl-2-[7-[(3-methyl-1H-indazol-6-yl)amino]-1-oxo-isoindolin-2-yl]-N-(2,2,2-trifluoroethyl)acetamide] |  |  | A (pIC50>8) | A (pIC50>8) |
| Cn1ncc2cc(Nc3cccc4c3C(=O)N(CC(=O)NC(C)(C)C(F)(F)F)C4)ccc21 [Example 49, 2-[7-[(1-methylindazol-5-yl)amino]-1-oxo-isoindolin-2-yl]-N-(2,2,2-trifluoro-1,1-dimethyl-ethyl)acetamide] |  |  | A (pIC50>8) | A (pIC50>8) |
| Cc1n[nH]c2cc(Nc3cccc4c3C(=O)N(CC(=O)N[C@@H](C)C(F)(F)F)C4)cc(F)c12 [Example 63, 2-[7-[(4-fluoro-3-methyl-1H-indazol-6-yl)amino]-1-oxo-isoindolin-2-yl]-N-[(1S)-2,2,2-trifluoro-1-methyl-ethyl]acetamide] |  |  | A (pIC50>8) | A (pIC50>8) |
| Cc1n[nH]c2cc(Nc3cccc4c3C(=O)N(CC(=O)N3CCCC[C@H]3C(F)(F)F)C4)ccc12 [Example 42, 7-[(3-methyl-1H-indazol-6-yl)amino]-2-[2-oxo-2-[(2S)-(trifluoromethyl)-1-piperidyl]ethyl]isoindolin-1-one] | < 10 | < 10 |  |  |

Now from value to compound:

| IC50 (Recombinant human DDR1) [nM] | IC50 (Recombinant human DDR2) [nM] | DDR1 pIC50 (Recombinant human DDR1) | DDR2 pIC50 (Recombinant human DDR2) | SMILES |
| --- | --- | --- | --- | --- |
| 10 to 100 | 10 to 100 |  |  | Cc1n[nH]c2cc(Nc3cccc4c3C(=O)N(CC(=O)N3CCOC[C@@H]3C(F)(F)F)C4)cnc12 [Example 71, 7-[(3-methyl-1H-pyrazolo[4,3-b]pyridin-6-yl)amino]-2-[2-oxo-2-[(3R)-(trifluoromethyl)morpholin-4-yl]ethyl]isoindolin-1-one] |
| 10 to 100 | 10 to 100 |  |  | C[C@H](N(C)C(=O)CN1Cc2cccc(Nc3cnc4[nH]ncc4c3)c2C1=O)C(F)(F)F [Example 77, N-methyl-2-[1-oxo-7-(1H-pyrazolo[3,4-b]pyridin-5-ylamino)isoindolin-2-yl]-N-[(1S)-2,2,2-trifluoro-1-methyl-ethyl]acetamide] |
| 10 to 100 | 100 to 1000 |  |  | O=C(CN1Cc2cccc(Nc3cnc4[nH]ncc4c3)c2C1=O)NC1CC1(F)F (stereo not drawn) [Example 75, N-(2,2-difluorocyclopropyl)-2-[1-oxo-7-(1H-pyrazolo[3,4-b]pyridin-5-ylamino)isoindolin-2-yl]acetamide] |
|  |  | D (pIC50≤6) | D (pIC50≤6) | Cc1nn(C)c2ncc(Nc3cccc4c3C(=O)N(CC(=O)NCC(F)(F)F)C4)cc12 [Example 101, 2-[7-[(1,3-dimethylpyrazolo[3,4-b]pyridin-5-yl)amino]-1-oxo-isoindolin-2-yl]-N-(2,2,2-trifluoroethyl)acetamide] |
| 10 to 100 | 10 to 100 |  |  | CN(c1ccc2c(cnn2C)c1)c1cccc2c1C(=O)N(CC(=O)N1CCC[C@H]1C(F)F)C2 [Example 95, 7-[methyl-(1-methylindazol-5-yl)amino]-2-[2-oxo-2-[(2S)-(difluoromethyl)pyrrolidin-1-yl]ethyl]isoindolin-1-one] |
| 10 to 100 | 100 to 1000 |  |  | CN(c1cnc2[nH]ncc2c1)c1cccc2c1C(=O)N(CC(=O)NCC(F)(F)F)C2 [Example 90, 2-[7-[methyl(1H-pyrazolo[3,4-b]pyridin-5-yl)amino]-1-oxo-isoindolin-2-yl]-N-(2,2,2-trifluoroethyl)acetamide] |
| 10 to 100 | 10 to 100 |  |  | Cn1ncc2cc(Nc3cccc4c3C(=O)N(CC(=O)Nc3cncc(C(F)(F)F)c3)C4)cnc21 [Example 99, 2-[7-[(1-methylpyrazolo[3,4-b]pyridin-5-yl)amino]-1-oxo-isoindolin-2-yl]-N-[5-(trifluoromethyl)-3-pyridyl]acetamide] |
|  |  | A (pIC50>8) | A (pIC50>8) | Cn1ncc2cc(Nc3cccc4c3C(=O)N(CC(=O)N3CCC[C@H]3C(F)(F)F)C4)cc(F)c21 [Example 96, 7-[(7-fluoro-1-methyl-indazol-5-yl)amino]-2-[2-oxo-2-[(2S)-(trifluoromethyl)pyrrolidin-1-yl]ethyl]isoindolin-1-one] |
| 10 to 100 | ≥ 1000 |  |  | N#Cc1n[nH]c2ccc(Nc3cccc4c3C(=O)N(CC(=O)N3CCC[C@H]3C(F)(F)F)C4)cc12 [Example 82, 5-[[3-oxo-2-[2-oxo-2-[(2S)-(trifluoromethyl)pyrrolidin-1-yl]ethyl]isoindolin-4-yl]amino]-1H-indazole-3-carbonitrile] |
| < 10 | < 10 |  |  | Cc1n[nH]c2cc(Nc3cccc4c3C(=O)N(CC(=O)N3CCC[C@H]3C(F)(F)F)C4)cc(F)c12 [Example 64, 7-[(4-fluoro-3-methyl-1H-indazol-6-yl)amino]-2-[2-oxo-2-[(2S)-(trifluoromethyl)pyrrolidin-1-yl]ethyl]isoindolin-1-one] |
| 10 to 100 |  |  | D (pIC50≤6) | Cn1ncc2cc(Nc3cccc4c3C(=O)N(CC(=O)NCC(F)(F)F)C4(F)F)ccc21 [Example 79, 2-[1,1-difluoro-4-[(1-methylindazol-5-yl)amino]-3-oxo-isoindolin-2-yl]-N-(2,2,2-trifluoroethyl)acetamide] |
